According to patent EP4035684A1, “AFFINITY ILLUDOFULVENE CONJUGATES” (AF Chemical LLC, priority 2019, dated 2022):

Columns and labels:
[1] = system: 8392B cell line; assay: Two hour toxicity: inhibition of DNA synthesis activity, nontarget cell line; type: cell-based; conditions: read-out: Mean IC50 value (nM) ± SD, N=3 unless otherwise indicated; 8392B Nontarget Cell Line; 2 hr exposure; 8392B nontarget cell line, 2 hr exposure; mean ± SD, N=3 unless otherwise indicated
[2] = system: 8392B cell line; assay: cells; type: cell-based; conditions: read-out: Mean IC50 value (nM) ± SD, N=3 unless otherwise indicated, 8392B Nontarget Cell Line, 48 hr exposure, 8392B nontarget cell line, mean ± SD, N=3 unless otherwise indicated

With `CC(=O)ON(C(C)=O)c1ccc(C(=O)OC[C@]2(C)C=C3C(=O)[C@](C)(O)C4(CC4)C(C)=C3C2O)cc1` (some centres unmarked) [compound 136] the IC50 [1] was over 6200 nM.
`CC1=C(CSc2nc(O)c3nccnc3n2)C2=C(C)C3(CC3)[C@@](C)(O)C(=O)C2=C1` [compound 153] gave an IC50 [1] of over 90000 nM.
For `CC1=C(CN=[N+]=[N-])C2=C(C)C3(CC3)[C@@](C)(O)C(=O)C2=C1` [compound 193], the IC50 [2] was over 11000 nM.
Work on `CC1=C(CCCOC(=O)[C@@H]2CCCN2)C2=C(C)C3(CC3)[C@@](C)(O)C(=O)C2=C1` [compound 196] yielded an IC50 [2] of over 9200 nM.
With `CC1=C(COc2ccc([N+](=O)[O-])cc2)C2=C(C)C3(CC3)[C@@](C)(O)C(=O)C2=C1` [compound 198] the IC50 [1] was over 8200 nM and the IC50 [2] was over 82000 nM.
Compound `CC1=C(COc2ccccc2)C2=C(C)C3(CC3)[C@@](C)(O)C(=O)C2=C1` [compound 199] has an IC50 [1] of over 93000 nM and an IC50 [2] of over 9300 nM.
`CC1=C(CCCNC(=O)[C@@H]2CCCN2)C2=C(C)C3(CC3)[C@@](C)(O)C(=O)C2=C1` [compound 202] gave an IC50 [1] of over 62000 nM and an IC50 [2] of over 6200 nM.
Compound `CC1=C(CCCOC(=O)[C@@H]2CCCN2C(=O)[C@@H](N)CO)C2=C(C)C3(CC3)[C@@](C)(O)C(=O)C2=C1` [compound 203] has an IC50 [2] of over 5500 nM.
`CC1=C(CCCOC(=O)[C@@H]2CCCN2C(=O)[C@H](CO)NC(=O)[C@@H](N)CO)C2=C(C)C3(CC3)[C@@](C)(O)C(=O)C2=C1` [compound 209] gave an IC50 [1] of over 90000 nM.
In the case of `CC1=C(COC(=O)CCCCCN2C(=O)C=CC2=O)C2=C(C)C3(CC3)[C@@](C)(O)C(=O)C2=C1` [compound 217], the IC50 [2] is reported as over 7000 nM.
For `CC1=C2C(=CC(C)(C)C2OC(=O)c2ccc(S(=O)(=O)F)cc2)C(=O)C(C)(O)C12CC2` (centres unmarked) [compound 222], the IC50 [1] was 9300 nM.
In the case of `CC(=O)ON(C(C)=O)C(=O)OCCCC1=C(C)C=C2C(=O)[C@](C)(O)C3(CC3)C(C)=C21` [compound 240], the IC50 [1] is reported as over 24000 nM.
Work on `CC1=C([C@@H]2CCOS(=O)(=O)N2)C2=C(C)C3(CC3)[C@@](C)(O)C(=O)C2=C1` [compound 259] yielded an IC50 [1] of over 85000 nM.
`CC1=C(CCCNC(=O)N2CCC(N3CCCCC3)CC2)C2=C(C)C3(CC3)[C@@](C)(O)C(=O)C2=C1` [compound 260] was tested, and the IC50 [1] was over 64000 nM.
In the case of `COC(=O)C[S+]([O-])CC1=C(C)C=C2C(=O)[C@](C)(O)C3(CC3)C(C)=C21` (some centres unmarked) [compound 263], the IC50 [1] is reported as 124000 ± 18000 nM.
In the case of `CON(CC1=C(C)C=C2C(=O)[C@](C)(O)C3(CC3)C(C)=C21)C(=O)CN` [compound 267], the IC50 [1] is reported as over 90000 nM.
Work on `CC1=C(CCCNC(=O)C(F)(F)F)C2=C(C)C3(CC3)[C@@](C)(O)C(=O)C2=C1` [compound 268] yielded an IC50 [2] of over 8000 nM.
In the case of `COc1ccc(NS(=O)(=O)OCC2=C(C)C=C3C(=O)[C@](C)(O)C4(CC4)C(C)=C32)cc1` [compound 269], the IC50 [2] is reported as over 7000 nM.
Compound `CC1=C(CN)C2=C(C)C3(CC3)[C@@](C)(O)C(=O)C2=C1` [compound 270] has an IC50 [1] of over 84000 nM.
With `CC1=C(CNS(C)(=O)=O)C2=C(C)C3(CC3)[C@@](C)(O)C(=O)C2=C1` [compound 271] the IC50 [1] was over 93000 nM and the IC50 [2] was over 9300 nM.
With `CC1=C(CCCNC(=O)OCC2=C(C(=O)O)N3C(=O)[C@H](NC(=O)Cc4cccs4)[C@@H]3S(=O)(=O)C2)C2=C(C)C3(CC3)[C@@](C)(O)C(=O)C2=C1` [compound 274] the IC50 [1] was over 46000 nM and the IC50 [2] was over 4500 nM.
`CC1=C(CNC(=O)C2CCCN2)C2=C(C)C3(CC3)[C@@](C)(O)C(=O)C2=C1` (some centres unmarked) [compound 275] was tested, and the IC50 [1] was over 62000 nM and the IC50 [2] was over 6200 nM.
In the case of `CC1=C(CNC(=O)C(N)CC(C)C)C2=C(C)C3(CC3)[C@@](C)(O)C(=O)C2=C1` (some centres unmarked) [compound 276], the IC50 [1] is reported as over 61000 nM and the IC50 [2] is reported as over 6100 nM.
For `CONC(=O)NCC1=C(C)C=C2C(=O)[C@](C)(O)C3(CC3)C(C)=C21` [compound 278], the IC50 [1] was over 94000 nM and the IC50 [2] was over 9400 nM.
Compound `CC1=C(CNS(N)(=O)=O)C2=CC3(CC3)C(C)(O)C(=O)C2=C1` (centres unmarked) [compound 283] has an IC50 [2] of over 9300 nM.
`CC1=C(Cn2c(=O)cc[nH]c2=O)C2=C(C)C3(CC3)[C@@](C)(O)C(=O)C2=C1` [compound 284] was tested, and the IC50 [2] was over 8800 nM.
`CC1=C(Cn2cc(F)c(=O)[nH]c2=O)C2=C(C)C3(CC3)[C@@](C)(O)C(=O)C2=C1` [compound 286] gave an IC50 [2] of over 8800 nM.
